According to US7393939B2, “Placental organic anion transporter and gene thereof” (Japan Science and Technology Corporation, priority 1999, dated 2008):
Entries after “also recorded” stand apart in the source; their conditions may differ. Counter-ions that a name gives are not always drawn. Like-named read-outs stand apart in the source and are kept apart here.

Legend:
Type in all cases: cell-based
[1] = target: T1, OAT4 (Homo sapiens, UniProt Q9NSA0); assay: Inhibition experiment: ^3H-estrone sulfate uptake in OAT4 cRNA-injected oocytes with various compounds; conditions: 50 nM ^3H-estrone sulfate; 500 μM unlabeled compound; FIG. 4
T1 construct: cRNA (an RNA complementary to cDNA) was prepared from a plasmid containing this cDNA; expressed in transfected cells; host or cells: Xenopus laevis oocytes injected with OAT4 cRNA (transcribed in vitro with T7 RNA polymerase from plasmid pZL holding the hOAT4 cDNA)
T1 sequence (Q9NSA0 1-550): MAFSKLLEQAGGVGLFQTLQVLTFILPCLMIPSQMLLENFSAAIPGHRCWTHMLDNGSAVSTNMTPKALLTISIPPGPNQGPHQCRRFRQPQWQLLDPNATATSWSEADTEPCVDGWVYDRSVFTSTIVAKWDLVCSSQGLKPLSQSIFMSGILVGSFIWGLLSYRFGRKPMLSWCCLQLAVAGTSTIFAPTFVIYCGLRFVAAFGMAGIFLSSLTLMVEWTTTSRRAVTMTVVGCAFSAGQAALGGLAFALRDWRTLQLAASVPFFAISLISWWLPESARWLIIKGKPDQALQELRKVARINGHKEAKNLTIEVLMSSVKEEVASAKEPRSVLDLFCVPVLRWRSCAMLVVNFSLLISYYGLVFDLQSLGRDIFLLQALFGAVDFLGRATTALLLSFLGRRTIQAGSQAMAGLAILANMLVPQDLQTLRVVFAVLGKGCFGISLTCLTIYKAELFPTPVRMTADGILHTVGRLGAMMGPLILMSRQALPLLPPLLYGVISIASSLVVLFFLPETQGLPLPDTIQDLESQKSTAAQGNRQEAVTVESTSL
Description: Further, in order to investigate the substrate selectivity of OAT4 of the present invention, various ionic substances were added to an incorporation experimental system of ^3H-estrone sulfate and the influence thereby was tested (Inhibition Experiment).
In order to further investigate the substrate selectivity of OAT4, various anionic substances were added to a system in an uptake experiment system of ^3H-estrone sulfate in oocytes into which OAT4 cRNA was injected and the influence was investigated (inhibition experiment). An uptake experiment of ^3H-estrone sulfate was carried out according to the above-mentioned method using oocytes into which OAT4 cRNA was injected. Uptake of 50 nM ^3H-estrone sulfate was measured in the presence and absence of 500 μM of various compounds (unlabeled).

[2] = target: T1, OAT4
Description: In order to confirm that the resulting OTA4 has an organic anion transport activity, cRNA (an RNA complementary to cDNA) was prepared from a plasmid containing this cDNA according to a method of Sekine, et al. (Sekine, T., et al., J. Biol. Chem., volume 272, pages 18526-18529, 1997) and injected into oocytes of Xenopus laevis and the oocytes were subjected to an incorporation experiment for various organic anions and organic cations which were labeled with radioisotopes.
From an OAT4 cDNA-containing plasmid was prepared cRNA (an RNA complementary to cDNA) in vitro using a T7 RNA polymerase (Sekine, T., et al., J. Biol. Chem., volume 272, pages 18526-18529, 1997).
The resulting cRNA was injected into oocytes of Xenopus laevis according to the already-reported method (Sekine, T., et al., J. Biol. Chem., volume 272, pages 18526-18529, 1997) and the oocytes were subjected to an incorporation experiment using various labeled organic anions and organic cations.

[3] = target: T1, OAT4; assay: Inhibitory test of OAT4 by sulfate conjugates and glucuronic acid conjugates; conditions: FIG. 5
[4] = target: T1, OAT4; assay: Michaelis-Menten kinetic test of organic anion transport by OAT4 in oocytes injected with OAT4 cRNA; conditions: FIG. 2
Description: After that, the above-mentioned oocytes into which OAT4 cRNA was injected was used for checking the changes in the amount of estrone sulfate, dehydroepiandrosterone sulfate and ochratoxin A incorporated by OAT4 of the present invention at various concentrations whereby a Michaelis-Menten dynamic test for an organic anion transport was carried out.
A Michaelis-Menten dynamic test was carried out for an organic anion transport of OAT4. Changes in the uptake amount of various concentrations of estrone sulfate and dehydroepiandrosterone sulfate by OAT4 were tested whereby concentration dependency of those substrates by OAT4 was investigated. The uptake experiment of labeled estrone sulfate and dehydroepiandrosterone sulfate was carried out according to the above-mentioned method using oocytes into which OAT4 cRNA was injected.

[5] = target: T1, OAT4; assay: Cation (sodium) dependency of estrone sulfate transport via OAT4 in oocytes; conditions: extracellular sodium substituted with lithium and choline; FIG. 3
Description: Dependency of the OAT4 of the present invention on sodium in an organic anion transport was investigated. Incorporation of estrone sulfate by OAT4 was tested in the presence of various extracellular cations.
Sodium-dependency of OAT4 in an organic anion transport was investigated. Even when extracellular sodium was substituted with lithium and choline, there was no change in the transport of estrone sulfate via OAT4 and it was clarified that OAT4 is an organic anion transporter which is independent on extracellular sodium (refer to FIG. 3).

Compound | inhibition of transport of ^3H-estrone sulfate by OAT4 [1] | other results
O=C(O)Cc1ccccc1Nc1c(Cl)cccc1Cl [diclofenac] | significantly inhibited | –
C[C@H](CCC(=O)O)[C@H]1CC[C@H]2[C@@H]3[C@H](O)C[C@@H]4C[C@H](O)CC[C@]4(C)[C@H]3C[C@H](O)[C@]12C [cholic acid] | significantly inhibited | –
C[C@@H]1Cc2c(Cl)cc(C(=O)N[C@@H](Cc3ccccc3)C(=O)O)c(O)c2C(=O)O1 [ochratoxin A] | – | incorporation (uptake) by oocytes expressing OAT4 ([2]; Xenopus laevis oocytes injected with OAT4 cRNA, radiolabeled substrate, FIG. 1, listed as 3H-ochratoxin A): incorporated; also recorded: showed incorporation
CCCN(CCC)S(=O)(=O)c1ccc(C(=O)O)cc1 [probenecid] | significantly inhibited | –
CC[N+](CC)(CC)CC [tetraethylammonium] | did not show an inhibiting action; also recorded: did not show any inhibiting action | incorporation (uptake) by oocytes expressing OAT4 [2]: no incorporation was noted
C[C@H](CCC(=O)NCCS(=O)(=O)O)[C@H]1CC[C@H]2[C@@H]3[C@H](O)C[C@@H]4C[C@H](O)CC[C@]4(C)[C@H]3C[C@H](O)[C@]12C [taurocholic acid] | significantly inhibited | –
dehydroepiandrosterone sulfate | – | incorporation (uptake) by oocytes expressing OAT4 ([2]; Xenopus laevis oocytes injected with OAT4 cRNA, radiolabeled substrate, FIG. 1, listed as 3H-dehydroepiandrosterone sulfate): incorporated; also recorded: showed incorporation
Nc1cc(N2CCCCC2)nc(N)[n+]1OS(=O)(=O)[O-] [minoxidil sulfate] | – | interaction with OAT4 (inhibitory test) [3]: all sulfate conjugates except minoxidil sulfate showed an interaction
COc1ccc2c(c1)c(CC(=O)O)c(C)n2C(=O)c1ccc(Cl)cc1 [indomethacin] | significantly inhibited | –
O=C(O)[C@H]1O[C@@H](Oc2cccc3ccccc23)[C@H](O)[C@@H](O)[C@@H]1O [α-naphthyl-β-glucuronide] | – | interaction with OAT4 (inhibitory test) [3]: only a weak interaction with OAT4 except α-naphthyl-β-glucuronide
CC1(C)S[C@@H]2[C@H](NC(=O)Cc3ccccc3)C(=O)N2[C@H]1C(=O)O [penicillin G] | significantly inhibited | –
estrone sulfate | – | incorporation (uptake) by oocytes expressing OAT4 ([2]; Xenopus laevis oocytes injected with OAT4 cRNA, radiolabeled substrate, FIG. 1, listed as 3H-estrone sulfate): incorporated; also recorded: showed incorporation; Km [4]: 1.01 ± 0.15 µM; change in transport of estrone sulfate via OAT4 on cation substitution [5]: no change
CCCCNc1cc(C(=O)O)cc(S(N)(=O)=O)c1Oc1ccccc1 [bumetanide] | significantly inhibited | –
CC(C)Cc1ccc(C(C)C(=O)O)cc1 (stereo not drawn) [ibuprofen] | significantly inhibited | –
O=C1OC(c2ccc(O)c(S(=O)(=O)O)c2)(c2ccc(O)c(S(=O)(=O)O)c2)c2c(Br)c(Br)c(Br)c(Br)c21 [bromosulfophthalein] | significantly inhibited | –
